According to patent publication US8425997B2, “Cobalt bearing polymeric compositions” (Umicore, priority 2008, dated 2013):

Experiment: Aqueous solubility (leaching) of Co, OECD-105 flask method
Assay type: physicochemical
Protocol: Experiments are performed to determine the aqueous solubility of the Co in the invented polymers. These tests are relevant as indicators for the bioavailability of Co.
[…] The leaching tests are conducted according to the OECD-105 standard flask method, as described in the OECD Guideline for the Testing of Chemicals, adopted on 27 Jul. 1995, and in the Official Journal of the European Communities L 383 A, 54-62 (1992).
The solubility of 3 typical polymers according to the invention is compared to that of 3 commercial products.

- Solubility of Co in 0.9% NaCl solution, Co (solvent: 0.9% NaCl): 1400 µg/mL
- Solubility of Co in water, Co (solvent: water): 1600 µg/mL
Substance: Co-acetylacetonate
